From patent US7955852B2, “Expansion of renewable stem cell populations” (Gamida Cell Ltd., priority 2002, dated 2011)

Legend:
CD34+ cells [1] = assay: Ex-vivo expansion of CD34+ cell enriched cord blood cultures with cytokines; cell counts and FACS surface antigen analysis; type: cell-based, human; conditions: for No. of CD34+ cells: treated for one week only; for % 34+ cells / % 34+/38− cells / % 34+/Lin− cells / No. of cells (×10^4): two weeks after seeding, 4 cytokines
Experimental: Human blood cells were obtained from umbilical cord blood from female patients following full-term, normal delivery (informed consent was obtained).
Samples were collected and processed within 12 hours postpartum. Blood was mixed with 3% Gelatin (Sigma, St. Louis, Mo.), sedimented for 30 minutes to remove most red blood cells. […] The mononuclear cell fraction in the interface layer was collected, washed three times and resuspended in phosphate-buffered saline (PBS) solution (Biological Industries) containing 0.5% bovine serum albumin (BSA, Fraction V; Sigma).
To purify CD34^+ mononuclear cells, the fraction was subjected to two cycles of immuno-magnetic separation using the MiniMACS® or Clinimax® CD34 Progenitor Cell Isolation Kit (Miltenyi Biotec, Auburn, Calif.) as per manufacturer's recommendations.
CD34^+ expressing purified cells above were cultured in 24-well Costar Cell Culture Clusters (Corning Inc., Corning, N.Y.) or culture bags (American Fluoroseal Corp), at a concentration of 10^4 cells/ml in alpha medium (Biological Industries, Beit Haemek, Israel) supplemented with 10% fetal bovine serum (FBS, Biological Industries). The following human recombinant cytokines were added: Thrombopoietin (TPO), interleukin-6 (IL-6), FLT-3 ligand and stem cell factor (SCF), all at final concentrations of 50 ng/ml each, though occasionally IL-3, at a concentration of 20 ng/ml, was added either together or instead of SCF. For non-hematopoietic cell differentiation, FGF, EGF, NGF, VEGF, LIF or Hepatocyte growth factor (HGF) were used to supplement the growth medium, either alone or in various combinations. All cytokines used were purchased from Perpo Tech, Inc. (Rocky Hill, N.J.). The cultures were incubated at 37° C., 5% CO2, in a humidified atmosphere.
At weekly intervals, cell cultures were toped and semi-depopulated and were supplemented with fresh medium, serum and cytokines or supplemented with fresh growth medium, alone. At predetermined time points, cells were harvested, stained with trypan blue, counted, and cell morphology was determined via the use of cytospin (Shandon, UK)-prepared smears stained with May-Grunwald/Giemsa solutions.
CD34^+ purified and whole MNC cultures were prepared and maintained as described above. […] The antagonist was added for a predetermined, limited period, for up to three weeks or continuously during the entire culture period.
Cells were harvested, washed with a PBS solution containing 1% bovine sera albumin (BSA) and 0.1% sodium azide (Sigma), and stained at 4° C. for 60 minutes with fluorescein isothiocyanate or phycoerythrin-conjugated antibodies (all from Immunoquality Products, the Netherlands). The cells were then washed with the same buffer and analyzed by FACS caliber or Facstarplus flow cytometers. Cells were passed at a rate of 1000 cells/second, using saline as the sheath fluid. A 488 nm argon laser beam served as the light source for excitation. Emission of ten thousand cells was measured using logarithmic amplification, and analyzed using CellQuest software. Negative control staining of cells was accomplished with mouse IgG-PE (Dako A/S Glostrup, Denmark) and mouse IgG-FITC (BD Biosciences, Erembodegem, Belgium).
CD34 surface expression on short and long-term cultures initiated either with purified CD34^+ cells or the entire MNC fraction was determined as follows: CD34^+ cells were positively reselected (Miltenyi kit) and counted. Purity was confirmed by subsequent FACS and cell morphology analysis.
Reselected CD34^+ cell subsets were stained for the following combination of antigens: CD34PE/CD38FITC and CD34PE/38, 33, 14, 15, 3, 4, 61, 19 (Lin) FITC. The fraction positive for CD34 and negative for CD38 was defined as CD34^+CD38^−. The fraction positive for CD34 and negative for LIN was defined as CD34^+Lin^− cell fraction.
FACS analysis results are given as percentage values of cells. Absolute numbers of subsets are calculated from the absolute number of CD34^+ cells.

CD34+ cells [2] = assay: Colony forming unit (CFU / LTC-CFUc) ability of ex-vivo CD34+ cell cultures; type: cell-based, human; conditions: for No. of CFU*103: 10^−5 M, treated for one week only
Experimental: Total cell counts, numbers of CD34^+ cells and subsets, and CFU numbers are presented as cumulative numbers, with the assumption that the cultures had not been passaged; i.e., the number of cells per ml were multiplied by the number of passages performed.
Cells were cloned in semi-solid, methylcellulose-containing medium supplemented with 2 IU/ml erythropoietin (Eprex, Cilag AG Int., Switzerland), stem cell factor and IL-3, both at 20 ng/ml, and G-CSF and GM-CSF, both at 10 ng/ml (all from Perpo Tech). Cultures were incubated for 14 days at 37° C., 5% CO2 in a humidified atmosphere.
Briefly, the ability of the cultures to maintain self-renewal was measured by determination of the content of colony forming unit cells in the long and extended long-term cultures (LTC-CFUc), as described in the references hereinabove.

[3] = 2 weeks expansion, re-selected CD34+ cell fraction (FIG. 2)

## CCc1ccc(C2=CC(C)(C)Sc3ccc(C#Cc4ccc(C(=O)O)cc4)cc32)cc1 [AGN 194310, 4-[[4-(4-ethylphenyl)-2,2-dimethyl-(2H)-thiochroman-6-yl]-ethynyl]benzoic acid]
CD34+ cells [1]; [3]
  increase in CD34+CD38− surface expression: 1000 fold
  increase in CD34+Lin− surface expression: 500 fold
CD34+ cells [1]; 10^−5 M, week 13
  No. of CD34+ cells: 10322
CD34+ cells [1]; 10^−5 M, week 20
  No. of CD34+ cells: 0
CD34+ cells [1]; 10^−5 M
  % 34+ cells: 18.94%
  % 34+/38− cells: 17.14%
  % 34+/Lin− cells: 15.18%
  No. of cells (×10^4): 42 ×10^4
CD34+ cells [1]; 10^−6 M
  % 34+ cells: 19.59%
  % 34+/38− cells: 17.16%
  % 34+/Lin− cells: 11.91%
  No. of cells (×10^4): 52 ×10^4
CD34+ cells [1]; 10^−7 M or 0.41 microgram/liter (FIG. 4)
  time post initial seeding until which cell proliferation was enabled: ≤ 11 weeks
CD34+ cells [1]; 10^−7 M, along with IL-3, 3 and 5 weeks
  activity on ex vivo expansion of stem/progenitor cells: moderate activity
CD34+ cells [1]; after two weeks in culture, CD34+ re-selected fraction (FIG. 3C)
  increase in CD34+Lin− surface expression: 530 fold
CD34+ cells [1]; antagonist for the first three weeks only, then eight weeks without
  increase in CD34+ expression between week three to eleven: 92 fold
CD34+ cells [1]; two weeks, FACS (FIGS. 1A-C)
  expression of differentiation associated antigens CD33, CD14, CD15, CD4, CD3, CD19 and CD61: significantly inhibited
  expression of the CD38 antigen: completely abolished
CD34+ cells [1]; week 11, antagonist for the first three weeks only
  expansion of CD34+ compartment since the initiation of the cultures: 1621 fold
CD34+ cells [1]; week eleven, 9 weeks after termination of antagonist treatment
  increase in CD34+Lin− expression: 16,700 fold
CD34+ cells [2]; week 13
  No. of CFU*103: 66355 *103
CD34+ cells [2]; week 20
  No. of CFU*103: 0 *103
CD34+ cells [2]; extended long-term (8-10 week) cultures, pulse-treatment or continuous treatment
  increase of CFU content: 15 ×10^4
CD34+ cells [2]; long-term (6 weeks) cultures pulsed for the first 3 weeks
  increase in CFU content as compared to control: 5 fold
CD34+ cells [2]; long-term cultures, antagonist administered continuously
  increase in CFU content as compared to control: 5 fold
CD34+ cells [2]; long-term cultures, pulsed first 3 weeks or continuous (FIG. 7)
  mixed colony forming unit (CFU-mix) content vs control: dramatic increase
